Paper PMC9604400, “Synthesis, Anticancer and Antitubercular Properties of New Chalcones and Their Nitrogen-Containing Five-Membered Heterocyclic Hybrids Bearing Sulfonamide Moiety” (International Journal of Molecular Sciences, 2022)
≈ marks a conversion by molar mass, not a printed value.

What was measured:
[1] = tested on: HCC-2998; experiment: NCI-60 screen (SRB), colon cancer; conditions: for IC50 / CC50: Homo sapiens; for IC50: HCC 2998; for CC50: HCC 2998, read-out: LC50
[2] = tested on: SK-OV-3; experiment: NCI-60 screen (SRB), ovarian cancer; conditions: Homo sapiens; for IC50: SK-OV-3; for CC50: SK-OV-3, read-out: LC50
[3] = tested on: SF-295; experiment: NCI-60 screen (SRB), CNS cancer; conditions: Homo sapiens; for IC50: SF-295; for CC50: SF-295, read-out: LC50
[4] = tested on: MDA-MB-435; experiment: NCI-60 screen (SRB), melanoma; conditions: Homo sapiens; for IC50: MDA-MB-435; for CC50: MDA-MB-435, read-out: LC50
[5] = tested on: NCI-H460; experiment: NCI-60 screen (SRB), non-small cell lung cancer; conditions: for IC50 / CC50: Homo sapiens; for IC50: NCI-H460; for CC50: NCI-H460, read-out: LC50
[6] = tested on: HCT-15; experiment: NCI-60 screen (SRB), colon cancer; conditions: for IC50 / CC50: Homo sapiens; for IC50: HCT-15; for CC50: HCT-15, read-out: LC50
[7] = tested on: SN12C; experiment: NCI-60 screen (SRB), renal cancer; conditions: Homo sapiens; for CC50: read-out: LC50
[8] = tested on: NCI-H522; experiment: NCI-60 screen (SRB), non-small cell lung cancer; conditions: Homo sapiens; for IC50: NCI-H522; for CC50: NCI-H522, read-out: LC50
[9] = tested on: renal cancer cell lines; experiment: NCI-60 screen (SRB), renal cancer panel; format: cell-based; conditions: Homo sapiens, single dose 10 μM, read-out: GI (growth inhibition), range over panel
[10] = tested on: CCRF-CEM; experiment: NCI-60 screen (SRB), leukemia; conditions: Homo sapiens; for CC50: read-out: LC50
[11] = tested on: SK-MEL-5; experiment: NCI-60 screen (SRB), melanoma; conditions: Homo sapiens; for IC50: SK-MEL-5; for CC50: SK-MEL-5, read-out: LC50
[12] = tested on: RPMI-8226; experiment: NCI-60 screen (SRB), leukemia; conditions: Homo sapiens; for IC50: RPMI-8226; for CC50: RPMI-8226, read-out: LC50
[13] = tested on: Mycobacterium bovis BCG (ATCC 35734); experiment: microbe, parasite or virus in culture; format: cell-based; conditions: Mycobacterium tuberculosis variant bovis BCG, read-out: MIC Against M. bovis BCG
[14] = tested on: Vero cell line; experiment: Cytotoxicity on Vero cell line (MTT); format: cell-based, African green monkey; conditions: Vero IC50 / MIC M. tuberculosis H37Rv
[15] = Cytotoxicity on Vero cell line (MTT); format: cell-based, African green monkey; conditions: African green monkey, Vero cells (African green monkey kidney, ATCC CCL-81); MTT, 24 h
[16] = tested on: Mycobacterium tuberculosis H37Rv (ATCC 27294); experiment: microbe, parasite or virus in culture; format: cell-based; conditions: Mycobacterium tuberculosis; agar dilution SPOTi; read-out: MIC Against M. tuberculosis H37Rv

## COc1cc(OC)c(S(N)(=O)=O)cc1C(=O)/C=C/c1ccc(Cl)cc1 [Compound 17b, (E)-5-(3-(4-Chlorophenyl)acryloyl)-2,4-dimethoxybenzenesulfonamide]
[1]
  IC50: 2410 nM
  CC50: 22.3 µM
[2]
  IC50: 2.8 µM
  CC50: 35.4 µM
[3]
  IC50: 3.88 µM
  CC50: 57.6 µM
[4]
  IC50: 2080 nM
  CC50: 29.3 µM
[5]
  IC50: 2840 nM
  CC50: > 100 µM
[6]; HCT-15, single dose 10 μM
  lethality: 41.55%
[6]
  IC50: 1.46 µM
  CC50: > 100 µM
[7]
  IC50: 2.48 µM
  CC50: 60.2 µM
[8]
  IC50: 1630 nM
  CC50: 7.14 µM
[9]
  inhibition at 10 µM: 78.5 to 100%
[10]
  IC50: 1520 nM
  CC50: > 100 µM
[11]
  IC50: 4.93 µM
  CC50: 43 µM
[12]
  IC50: 1860 nM
  CC50: > 100 µM

## COc1cc(OC)c(S(N)(=O)=O)cc1C(=O)C=Cc1ccccc1 [Compound 17a, 5-Cinnamoyl-2,4-dimethoxybenzenesulfonamide]
[1]
  IC50: 12500 nM
  CC50: 54.7 µM
[13]
  MIC: > 29 µM
[2]
  IC50: 14.4 µM
  CC50: 52.9 µM
[3]
  IC50: 15.7 µM
  CC50: 58.2 µM
[4]
  IC50: 2120 nM
  CC50: 35.9 µM
[14]
  Selectivity Index (SI) (SI = IC50/MIC): 0.04
[15]
  IC50 at 24 h: 1060 ± 1210 nM
[5]
  IC50: 1950 nM
  CC50: 51.2 µM
[6]
  IC50: 3.55 µM
  CC50: 57.5 µM
[7]
  IC50: 3.49 µM
  CC50: 43.8 µM
[8]
  IC50: 6560 nM
  CC50: 49.7 µM
[9]
  inhibition at 10 µM: 66.2 to 100%
[16]
  MIC: 29 µM (≈ 10.1 µg/mL)
[10]
  IC50: 3930 nM
  CC50: > 100 µM
[11]
  IC50: 17.6 µM
  CC50: 59.7 µM
[12]
  IC50: 2980 nM
  CC50: > 100 µM

## COc1cc(OC)c(S(N)(=O)=O)cc1C(=O)/C=C/c1ccc(C)cc1 [Compound 17c, (E)-2,4-Dimethoxy-5-(3-(p-tolyl)acryloyl)benzenesulfonamide]
[1]
  IC50: 2390 nM
  CC50: 22.3 µM
[2]
  IC50: 3.18 µM
  CC50: 32.5 µM
[3]
  IC50: 3.89 µM
  CC50: 43.2 µM
[4]
  IC50: 2270 nM
  CC50: 25.4 µM
[5]
  IC50: 2240 nM
  CC50: 44.3 µM
[5]; NCI-H460, single dose 10 μM
  lethality: 3.51%
[6]
  IC50: 2.56 µM
  CC50: 74.8 µM
[7]
  IC50: 2.95 µM
  CC50: 38.8 µM
[8]
  IC50: 2480 nM
  CC50: 32.5 µM
[10]
  IC50: 3990 nM
  CC50: > 100 µM
[11]
  IC50: 7.81 µM
  CC50: 49.4 µM
[12]
  IC50: 3200 nM
  CC50: > 100 µM

## COc1cc(OC)c(S(=O)(=O)N(CCCl)CCCl)cc1C(=O)/C=C/c1cc(OC)c(OC)c(OC)c1 [Compound 18e, (E)-N,N-bis(2-Chloroethyl)-2,4-dimethoxy-5-(3-(3,4,5-trimethoxyphenyl)acryloyl)benzenesulfonamide]
[1]; HCC-2998, single dose 10 μM
  lethality: 91.08%
[1]
  IC50: 3540 nM
  CC50: 6.35 µM
[2]
  IC50: 13 µM
  CC50: > 100 µM
[3]
  IC50: 35.4 µM
  CC50: > 100 µM
[4]
  IC50: 7510 nM
  CC50: > 100 µM
[5]
  IC50: 1950 nM
  CC50: > 100 µM
[6]
  IC50: 3.98 µM
  CC50: > 100 µM
[7]
  IC50: 13 µM
  CC50: > 100 µM
[8]
  IC50: 1660 nM
  CC50: 8.59 µM
[10]
  IC50: 1690 nM
  CC50: > 100 µM
[11]
  IC50: 3.64 µM
  CC50: 7.19 µM
[12]
  IC50: 2520 nM
  CC50: > 100 µM
